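Protocol summary: plate cells (96-well), add compound at 5 concentrations, incubate 48 h, interpolate endpoints linearly. Here, GI50 denotes the concentration required for 50% inhibition of growth.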 Calls of active or inactive are those of the source. Rule as the data show it: active = GI50 up to about 1.1 µM and inactive = higher.
Columns and labels:
Assay in all cases: NCI anticancer screen, dose series, 48 h
[1] = system: KM12
[2] = system: SNB-19
[3] = system: IGROV-1
[4] = system: OVCAR-3
[5] = system: A498
[6] = system: RPMI-8226
[7] = system: HCT-116
[8] = system: HCC 2998
[9] = system: NCI-H522
[10] = system: U-251
[11] = system: CAKI-1
[12] = system: MDA-MB-231
[13] = system: SNB-75
[14] = system: PC-3
[15] = system: NCI/ADR-RES
[16] = system: OVCAR-4
[17] = system: ACHN
[18] = system: SK-MEL-2
[19] = system: SN12C
[20] = system: OVCAR-5

Measured: GI50

COc1ccc(N2C(=O)CC(=O)N(NC(=O)C(C)Oc3ccccc3C)C2=S)cc1 (stereo not given)
inactive: [1] > 100 µM | [2] > 100 µM | [3] > 100 µM | [4] > 100 µM | [5] > 100 µM | [6] > 100 µM | [7] > 100 µM | [8] > 100 µM | [9] > 100 µM | [10] > 100 µM | [11] > 100 µM | [12] > 100 µM | [13] > 100 µM | [14] > 100 µM | [15] > 100 µM | [16] > 100 µM | [17] > 100 µM | [18] > 100 µM | [19] > 100 µM | [20] > 100 µM

FC(F)(F)C1(c2ccccc2)SCc2nc3ccccc3n21 (stereo not given)
inactive: [1] > 100 µM | [2] > 100 µM | [3] > 100 µM | [4] > 100 µM | [5] > 100 µM | [6] 70.5 µM | [7] 65.5 µM | [8] > 100 µM | [9] 55.6 µM | [10] > 100 µM | [11] > 100 µM | [12] > 100 µM | [13] 88.1 µM | [14] 83.6 µM | [15] > 100 µM | [16] > 100 µM | [17] > 100 µM | [18] > 100 µM | [19] > 100 µM | [20] > 100 µM

FC1(F)ON2CCc3ccccc3C2[C@H]1c1ccccc1 (stereo not given in full)
inactive: [1] > 10 µM | [2] > 10 µM | [3] > 10 µM | [4] 21 µM | [5] > 10 µM | [6] > 10 µM | [7] 65.6 µM | [8] > 10 µM | [9] > 10 µM | [10] 74 µM | [11] > 10 µM | [12] 48.9 µM | [13] 16.7 µM | [14] > 10 µM | [15] 92.9 µM | [16] > 10 µM | [17] > 10 µM | [18] > 10 µM | [19] > 10 µM | [20] > 10 µM

O=c1cc(NNc2cccc3ccccc23)[nH]c(=O)[nH]1
inactive: [1] 16.4 µM | [2] 14.3 µM | [3] 15.4 µM | [4] 14 µM | [5] 19.8 µM | [6] 5.53 µM | [7] 17.4 µM | [8] 20 µM | [9] 14.8 µM | [10] 14.6 µM | [11] 14.7 µM | [12] 13.3 µM | [13] 16.6 µM | [14] 13.8 µM | [15] 19.5 µM | [16] 17.2 µM | [17] 16.5 µM | [18] 15 µM | [19] 16.2 µM | [20] 17.2 µM
